Reference: ChEMBL document CHEMBL1201862, “PubChem BioAssay data set” (2004)
Active and inactive are the calls of the source.

Legend:
[1] = Luminescence Cell-Based Dose Response HTS to Identify Activators of Luciferase Translation or Activity in H4 […] Cells. [Related pubchem assays: 1829 (Project Summary), 1814 (Primary HTS)]; format: functional
[2] = Luminescence Cell-Based Dose Confirmation HTS to Identify Activators of 5'UTR Stem-Loop Driven Alpha-Synuclein mRNA Translation in H4 Neuroglioblastoma Cells. [Related pubchem assays: 1829 (Project Summary), 1814 (Primary HTS)]; format: functional
H4 = assay: Luminescence Cell-Based Dose Response HTS to Identify Activators of 5'UTR Stem-Loop Driven Prion Protein mRNA Translation in H4 Neuroglioblastoma Cells. [Related pubchem assays: 1829 (Project Summary), 1814 (Primary HTS)]; format: functional; conditions: Homo sapiens
[3] = Vero E6 cell cytotoxicity, dose response, cytotoxicity control for non-replicating M. tuberculosis project, secondary assay (AID 492998); format: functional, VeroE6; conditions: Vero C1008
cells = format: functional
[4] = molecular target: T1, DNA repair protein RAD52 homolog (Homo sapiens, UniProt P43351); format: functional, biochemical
T1 sequence (P43351 whole entry): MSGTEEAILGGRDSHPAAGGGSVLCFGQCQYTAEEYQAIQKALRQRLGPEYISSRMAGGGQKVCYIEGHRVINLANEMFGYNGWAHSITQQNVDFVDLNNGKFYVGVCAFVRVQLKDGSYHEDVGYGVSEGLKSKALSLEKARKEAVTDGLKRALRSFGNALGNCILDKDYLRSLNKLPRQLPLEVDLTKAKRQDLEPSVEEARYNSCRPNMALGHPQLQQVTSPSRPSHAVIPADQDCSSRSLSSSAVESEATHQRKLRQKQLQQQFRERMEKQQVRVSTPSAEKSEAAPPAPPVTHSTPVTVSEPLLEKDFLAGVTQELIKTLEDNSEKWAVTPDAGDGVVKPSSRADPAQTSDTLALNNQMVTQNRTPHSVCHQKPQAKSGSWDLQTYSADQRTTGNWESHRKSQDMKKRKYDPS

[5] = THP-1 cell cytotoxicity, dose response, cytotoxicity control for non-replicating M. tuberculosis project (AID 489025); format: functional
[6] = HepG2 cell cytotoxicity, dose response, cytotoxicity control for non-replicating M. tuberculosis project (AID 489018); format: functional; conditions: Mycobacterium tuberculosis
[7] = molecular target: Eukaryotic translation initiation factor 4E (Mus musculus, UniProt P63073); assay: blockers of eIF4G binding by eIF4E – biochemical, TR-FRET, dose response (AID 855); format: functional;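 also: potency for disrupting eIF4E binding to eIF4GI seen as loss of FRET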
Vero = assay: viability of Vero cells under compound – cytotoxicity control for flavivirus capping enzyme inhibitors (AID 588742); format: functional; conditions: Chlorocebus sabaeus
[8] = molecular target: Glucose-6-phosphate 1-dehydrogenase (Homo sapiens, UniProt P11413); assay: inhibition of Homo sapiens G6PD, dose series – biochemical, fluorescence, selectivity assay for P. falciparum G6PD inhibitor project, dose response (AID 504792); format: functional
Genome polyprotein = Genome polyprotein (dengue virus type 2, UniProt P29990); assay: flavivirus cap methylation enzyme inhibition – biochemical, confirmation dose response, primary screen (AID 588689); format: functional
Cytochrome P450 3A4 = Cytochrome P450 3A4 (Homo sapiens, UniProt P08684);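 also: CYP3A4 tested as one member of a cytochrome P450 panel screen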
Cytochrome P450 1A2 = molecular target: T2, Cytochrome P450 1A2 (Homo sapiens, UniProt P05177);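 also: PubChem cytochrome P450 panel assay, CYP1A2 panel member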
T2 sequence (P05177 whole entry): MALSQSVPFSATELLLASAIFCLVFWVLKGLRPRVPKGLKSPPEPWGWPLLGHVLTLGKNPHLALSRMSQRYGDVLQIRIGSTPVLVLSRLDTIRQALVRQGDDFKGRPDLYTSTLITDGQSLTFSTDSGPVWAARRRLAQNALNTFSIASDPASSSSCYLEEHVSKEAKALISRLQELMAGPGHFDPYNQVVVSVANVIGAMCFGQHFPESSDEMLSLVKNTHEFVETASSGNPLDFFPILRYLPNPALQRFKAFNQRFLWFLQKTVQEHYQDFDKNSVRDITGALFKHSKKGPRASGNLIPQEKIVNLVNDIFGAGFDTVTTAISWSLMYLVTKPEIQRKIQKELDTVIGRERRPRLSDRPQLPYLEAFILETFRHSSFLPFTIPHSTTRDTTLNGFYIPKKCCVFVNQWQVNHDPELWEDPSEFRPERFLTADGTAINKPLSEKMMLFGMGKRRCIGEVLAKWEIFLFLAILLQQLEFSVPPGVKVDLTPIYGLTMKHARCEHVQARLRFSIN

[9] = molecular target: T3, Alkaline phosphatase, tissue-nonspecific isozyme (Homo sapiens, UniProt P05186); assay: potency against alkaline phosphatase TNAP – biochemical, luminescent, dose response, SAR follow-up (AID 1056)
T3 sequence (P05186 whole entry): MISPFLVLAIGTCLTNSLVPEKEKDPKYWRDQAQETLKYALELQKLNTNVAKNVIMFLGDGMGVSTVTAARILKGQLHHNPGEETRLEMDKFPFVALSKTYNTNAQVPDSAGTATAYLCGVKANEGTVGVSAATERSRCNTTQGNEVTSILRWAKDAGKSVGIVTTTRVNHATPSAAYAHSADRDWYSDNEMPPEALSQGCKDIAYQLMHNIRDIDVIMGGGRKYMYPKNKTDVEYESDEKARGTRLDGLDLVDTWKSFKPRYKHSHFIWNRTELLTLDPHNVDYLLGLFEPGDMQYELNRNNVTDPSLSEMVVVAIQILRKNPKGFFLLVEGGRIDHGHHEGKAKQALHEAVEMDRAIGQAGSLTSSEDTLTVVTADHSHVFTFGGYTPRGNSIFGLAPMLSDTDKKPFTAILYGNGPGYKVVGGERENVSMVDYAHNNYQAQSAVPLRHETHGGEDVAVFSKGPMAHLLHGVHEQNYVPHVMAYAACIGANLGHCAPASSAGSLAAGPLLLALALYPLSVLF

[10] = molecular target: T4, Rac GTPase-activating protein 1 (Homo sapiens, UniProt Q9H0H5); assay: blockers of MgcRacGAP-driven Rac1 GTP hydrolysis – biochemical, ADP Hunter fluorescence, primary and confirmatory, confirmation (AID 624330); format: functional
T4 sequence (Q9H0H5 whole entry): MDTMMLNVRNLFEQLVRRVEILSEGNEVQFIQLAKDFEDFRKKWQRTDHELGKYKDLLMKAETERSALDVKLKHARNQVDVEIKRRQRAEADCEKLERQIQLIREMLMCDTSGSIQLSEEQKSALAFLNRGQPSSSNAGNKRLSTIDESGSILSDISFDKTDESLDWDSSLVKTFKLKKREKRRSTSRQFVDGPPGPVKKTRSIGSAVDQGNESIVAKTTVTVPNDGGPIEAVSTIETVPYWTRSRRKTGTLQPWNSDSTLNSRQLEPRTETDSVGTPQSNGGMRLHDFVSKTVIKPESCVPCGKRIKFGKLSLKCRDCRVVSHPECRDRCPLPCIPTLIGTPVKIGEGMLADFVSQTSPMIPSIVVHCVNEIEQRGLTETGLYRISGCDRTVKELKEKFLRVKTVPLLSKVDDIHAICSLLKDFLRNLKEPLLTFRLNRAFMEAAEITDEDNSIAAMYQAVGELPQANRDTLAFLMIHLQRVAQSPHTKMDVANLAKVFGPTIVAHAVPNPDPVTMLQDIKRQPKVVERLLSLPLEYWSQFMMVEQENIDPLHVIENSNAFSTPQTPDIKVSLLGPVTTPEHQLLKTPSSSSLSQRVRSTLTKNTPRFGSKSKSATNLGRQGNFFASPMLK

[11] = molecular target: Glyceraldehyde-3-phosphate dehydrogenase (Homo sapiens, UniProt P04406)
Chain of Glyceraldehyde-3-phosphate dehydrogenase (P04406 whole entry): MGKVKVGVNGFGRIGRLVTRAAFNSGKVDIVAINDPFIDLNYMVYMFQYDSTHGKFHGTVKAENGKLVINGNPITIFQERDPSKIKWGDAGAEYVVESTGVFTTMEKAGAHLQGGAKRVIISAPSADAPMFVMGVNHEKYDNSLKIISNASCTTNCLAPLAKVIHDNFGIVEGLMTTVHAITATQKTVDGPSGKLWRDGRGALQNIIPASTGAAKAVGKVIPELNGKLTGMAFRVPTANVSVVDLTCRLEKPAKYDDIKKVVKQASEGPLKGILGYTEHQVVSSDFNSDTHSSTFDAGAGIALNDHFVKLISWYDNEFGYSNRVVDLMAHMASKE

Chain of Eukaryotic translation initiation factor 4E (P63073 whole entry): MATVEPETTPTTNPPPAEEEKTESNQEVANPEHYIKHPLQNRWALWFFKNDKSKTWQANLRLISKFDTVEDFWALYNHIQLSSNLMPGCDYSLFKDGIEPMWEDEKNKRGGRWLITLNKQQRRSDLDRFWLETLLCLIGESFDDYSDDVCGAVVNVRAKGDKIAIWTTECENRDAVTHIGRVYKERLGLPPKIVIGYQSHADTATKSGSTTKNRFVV
Chain of Genome polyprotein (P29990 2492-3391 limits assumed): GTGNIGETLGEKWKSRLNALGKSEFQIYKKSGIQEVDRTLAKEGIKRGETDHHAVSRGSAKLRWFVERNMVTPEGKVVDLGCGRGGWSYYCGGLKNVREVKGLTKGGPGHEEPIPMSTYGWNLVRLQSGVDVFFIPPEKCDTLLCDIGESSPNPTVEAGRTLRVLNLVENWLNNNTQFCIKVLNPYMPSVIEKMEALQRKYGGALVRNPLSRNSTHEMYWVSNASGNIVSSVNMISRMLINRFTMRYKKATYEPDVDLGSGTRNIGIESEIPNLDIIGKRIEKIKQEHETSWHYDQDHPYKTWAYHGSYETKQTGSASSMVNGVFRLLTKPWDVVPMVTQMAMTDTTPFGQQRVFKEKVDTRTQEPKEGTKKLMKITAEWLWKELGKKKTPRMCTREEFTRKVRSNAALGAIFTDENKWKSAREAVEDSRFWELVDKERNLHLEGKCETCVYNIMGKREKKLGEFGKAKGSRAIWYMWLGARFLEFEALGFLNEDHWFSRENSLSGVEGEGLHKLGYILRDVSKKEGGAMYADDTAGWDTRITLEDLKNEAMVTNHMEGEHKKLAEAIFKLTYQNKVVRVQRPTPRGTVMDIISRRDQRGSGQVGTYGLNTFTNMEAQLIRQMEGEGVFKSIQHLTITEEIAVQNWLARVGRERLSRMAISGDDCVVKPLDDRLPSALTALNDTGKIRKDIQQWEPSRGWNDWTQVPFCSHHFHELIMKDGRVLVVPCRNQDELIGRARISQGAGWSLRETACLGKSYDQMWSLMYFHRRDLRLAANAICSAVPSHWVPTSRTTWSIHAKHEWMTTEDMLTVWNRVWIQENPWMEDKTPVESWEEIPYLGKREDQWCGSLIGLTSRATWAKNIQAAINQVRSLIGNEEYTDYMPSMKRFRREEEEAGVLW
Chain of Glucose-6-phosphate 1-dehydrogenase (P11413 whole entry): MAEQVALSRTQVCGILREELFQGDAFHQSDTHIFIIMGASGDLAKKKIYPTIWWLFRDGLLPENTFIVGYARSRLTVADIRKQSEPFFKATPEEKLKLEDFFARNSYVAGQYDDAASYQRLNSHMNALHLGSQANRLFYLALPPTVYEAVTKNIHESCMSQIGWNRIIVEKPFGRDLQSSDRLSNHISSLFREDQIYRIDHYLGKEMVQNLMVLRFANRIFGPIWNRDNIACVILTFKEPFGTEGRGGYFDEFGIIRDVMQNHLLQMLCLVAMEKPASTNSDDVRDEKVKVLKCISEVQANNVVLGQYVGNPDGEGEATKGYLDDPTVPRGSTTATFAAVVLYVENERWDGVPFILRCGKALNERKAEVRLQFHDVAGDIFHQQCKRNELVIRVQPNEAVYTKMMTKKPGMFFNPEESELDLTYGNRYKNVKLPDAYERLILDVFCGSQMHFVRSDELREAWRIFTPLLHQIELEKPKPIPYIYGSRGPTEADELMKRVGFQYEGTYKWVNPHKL
Chain of Cytochrome P450 3A4 (P08684 whole entry): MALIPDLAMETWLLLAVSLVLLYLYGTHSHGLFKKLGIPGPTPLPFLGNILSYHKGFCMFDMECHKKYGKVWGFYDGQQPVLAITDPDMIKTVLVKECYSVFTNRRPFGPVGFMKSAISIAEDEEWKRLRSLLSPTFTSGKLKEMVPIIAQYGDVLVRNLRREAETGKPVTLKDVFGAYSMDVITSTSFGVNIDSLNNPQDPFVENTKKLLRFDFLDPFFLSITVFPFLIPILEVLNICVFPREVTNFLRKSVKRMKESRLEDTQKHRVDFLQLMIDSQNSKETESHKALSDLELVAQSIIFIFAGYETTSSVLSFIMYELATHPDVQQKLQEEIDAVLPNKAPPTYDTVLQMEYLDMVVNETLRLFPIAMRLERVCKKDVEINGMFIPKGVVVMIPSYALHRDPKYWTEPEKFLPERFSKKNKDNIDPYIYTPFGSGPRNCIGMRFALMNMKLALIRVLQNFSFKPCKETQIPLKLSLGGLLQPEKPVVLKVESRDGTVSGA

Q: With `CCc1nccn1CCC(=O)N1CCCC(N2CCN(c3cccc(Cl)c3)CC2)C1` (stereo unspecified) as the compound, how does the EC50 [1] read?
A: 25.5 µM (active)

Q: What about the EC50 [2] of the same compound?
A: > 120 µM (not active)

Q: What about the EC50 (H4) of the same compound?
A: 16.3 µM (active)

Q: Which CC50 [3] does the source give for `CN(C)CC/C=C1\c2ccccc2Sc2cc(F)c(Cl)cc21` here?
A: > 20 µM (active)

Q: And the IC50 (cells)?
A: 20.8 µM (active)

Q: What about the AC50 [4] of the same compound?
A: 15.1 µM (active)

Q: And the CC50 [5]?
A: 17 µM (active)

Q: What about the CC50 [6] of the same compound?
A: > 20 µM (active)

Q: Which results are given for `COc1cc(CNc2ccc(N3CCCC3)cc2)ccc1OCc1ccccc1F`?
A: IC50 [7]: > 64 µM (inactive); CC50 (Vero): > 40 µM (active); IC50 [8]: > 80 µM (inactive); IC50 (Genome polyprotein): 54.2 µM (active)

Q: Which results are given for `Cc1ccc(Oc2ncc(CN3CCOCC3)s2)cc1`?
A: EC50 [1]: 13.1 µM (active); EC50 [2]: 13.1 µM (active); AC50 (Cytochrome P450 3A4): 20 µM (inconclusive); AC50 (Cytochrome P450 1A2): 22.4 µM (inconclusive); EC50 (H4): 40.4 µM (active)

Q: Which results are given for `O=C(CSc1nnc2ccc3ccccc3n12)N1CCOCC1`?
A: EC50 [1]: 14.6 µM (active); EC50 [2]: > 120 µM (not active); EC50 (H4): 14.4 µM (inconclusive)

Q: Which IC50 [9] does the source give for `Cc1cc(C)nc(SCC(=O)c2ccc(O)c(O)c2)n1` here?
A: 5.76 µM (active)

Q: What about the IC50 [10] of the same compound?
A: 30.6 µM (active)

Q: Which IC50 [11] does the source give for `Cc1cc(C(=O)Nc2ccc(O)c(C(=O)O)c2)c(C)o1` here?
A: > 100 µM (not active)

Q: For `C/C(=N\NC(=O)c1nc2ccccn2c1C)c1ccco1`, which EC50 [1] is on record?
A: > 120 µM (not active)

Q: And the EC50 [2]?
A: 14.4 µM (active)

Q: And the EC50 (H4)?
A: 15.7 µM (active)
